Reference: PMC5147891 (PLoS ONE, 2016)
Several values for one entry are separate records, joined by “and”; a condition that tells them apart may be missing. Equal entries are not always repeated. Marks after values point to notes of the source that are not given here.

Columns and labels:
hCB2 receptors [1] = molecular target: T1, hCB2 receptors (Homo sapiens, UniProt P34972); assay: Competition receptor binding with [3H]CP-55,940, CHO-hCB2 membranes; conditions: [3H]CP-55,940 binding, CHO-hCB2, 0.2 nM [3H]CP-55,940, CHO-hCB2 membranes
T1 construct: expressed in transfected cells
Experimental: (§1) CHO-hCB1, CHO-hCB2 and CHO-hMOR cells were homogenized individually with 10 complete strokes utilizing a 7ml Dounce glass homogenizer in an ice-cold buffer containing 50 mM HEPES pH 7.4, 3 mM MgCl2, and 1 mM EDTA as described previously. The homogenized samples were then centrifuged at 40,000 × g for 10 min at 4°C. Supernatants were discarded; the pellets re-suspended in the buffer, homogenized again, and centrifuged similarly twice more. After the final centrifugation step, supernatants were discarded and pellets were re-suspended in ice-cold 50 mM HEPES, pH 7.4 to achieve an approximate protein concentration of 10 mg/ml. Membrane homogenates were divided into aliquots and stored at −80°C for future use. A small aliquot of each membrane preparation was removed prior to freezing and the protein concentration was determined using BCA Protein Assay (Thermo Fisher Scientific, Waltham, MA).
(§2) Competition receptor binding was performed as reported earlier. […] The total volume of the incubation mixture was 1 ml. All reactions were mixed and allowed to reach equilibrium binding by incubation at room temperature for 90 min. […] Binding was terminated by rapid vacuum filtration through glass fiber filters (Brandel, Gaithersburg, MD), followed by four 5 ml washes of ice-cold 50 mM Tris-HCl (pH 7.4) buffer containing 0.1% bovine serum albumin. Four ml of scintiverse scintillation fluid (Fisher Scientific, Waltham, MA) was added to the filters and the amount of radioactivity was quantified 24 hr later utilizing liquid scintillation spectrophotometry.
(§3) Data presented are expressed as mean ± standard error of the mean (S.E.M.) for a minimum of three experiments, each performed in triplicate. GraphPad Prism version 6.0f (GraphPad Software Inc.) was used for all curve-fitting and statistical analyses. Non-linear regression for one-site competition was used to determine the IC50 for competition receptor binding. IC50 values were subsequently converted to Ki values (a measure of receptor affinity) by the Cheng-Prusoff equation [31]. Non-linear regression was also used to analyze concentration-effect curves to determine the EC50 or IC50 (measures of potency) and Emax or Imax (measures of efficacy) for GTPγS binding and adenylyl cyclase experiments, respectively. All dissociation constants and measurements of potency were converted to pKi, pKB, pEC50, or pIC50 values by taking the negative log of each value so that parametric tests could be used for statistical comparisons. To compare three or more groups, statistical significance of the data was determined by a one-way ANOVA, followed by post hoc comparisons using a Tukey's or Dunnett's test. To compare two groups, the non-paired Student's t-test was used.

hCB1 receptors [2] = molecular target: T2, hCB1 receptors (Homo sapiens, UniProt P21554); assay: Competition receptor binding with [3H]CP-55,940, CHO-hCB1 membranes; conditions: for Ki: [3H]CP-55,940 binding, CHO-hCB1, 0.2 nM [3H]CP-55,940, CHO-hCB1 membranes; for Selectivity (CB1/CB2): ratio hCB1-Ki/hCB2-Ki
Experimental: as §1, §2, §3

hCB2 receptors [3] = molecular target: T1, hCB2 receptors; assay: Forskolin-stimulated intracellular [3H]cAMP in intact CHO-hCB2 cells; type: cell-based; conditions: values only approximate; for EMAX, intracellular [3H]cAMP: forskolin-stimulated cAMP; for EC50: increase of forskolin-stimulated cAMP
Experimental: CHO-hCB1, CHO-hCB2, or CHO-hMOR cells were plated separately in normal culture media into 24-well plates at a density of 6 × 10^6 cells/plate and incubated overnight at 37°C in 5% CO2. As previously described, the following day culture media was removed from each well and replaced with 500 μl pre-incubation mixture containing either HAM’s F-12 K (CHO-hCB1) or DMEM (CHO-hCB2 and CHO-hMOR) with 0.9% NaCl, 500 μM 3-isobutyl-1-methylxathine (IBMX) and 2 μCi/well [^3H]adenine. Cells were incubated for 3–5 hr at 37°C. The pre-incubation mix was removed and indicated concentrations of drugs were added to the individual wells for 15 min at 37°C in a Krebs-Ringer-HEPES solution (10 mM HEPES, 110mM NaCl, 25mM Glucose, 55mM Sucrose, 5mM KCl, 1mM MgCl2, 1.8 mM CaCl2, pH 7.4) containing IBMX, and 10 μM forskolin. Reactions were terminated by adding 50 μl 2.2N HCl and [^3H]cAMP was isolated by employing alumina column chromatography. Radioactivity contained in 4 ml of the final column eluate was counted by a Packard-Tri-carb 2100/TR liquid scintillation counter after adding 10 ml of liquid scintillation cocktail.
To determine if modulation of adenylyl cyclase activity by SERMs was mediated through CB2 receptors coupling to Gi/o proteins, additional cAMP assays were conducted following overnight treatment with pertussis toxin as described elsewhere. Briefly, CHO-hCB2 cells were seeded into 24-well plates as described above in normal culture media containing 100 ng/ml of pertussis toxin and incubated overnight at 37°C. Pertussis toxin-treated media was removed and measurement of intracellular [^3H]cAMP levels following indicated SERM treatments was conducted as described above.
as §3

ERs = conditions: ref [23], [24]; cited from earlier work
hCB2 receptors [4] = molecular target: T1, hCB2 receptors; assay: [35S]GTPγS binding (G-protein activity), CHO-hCB2 membranes; type: biochemical; conditions: 10 μM
Experimental: as §1
The GTPγS binding assay to measure G-protein activation was performed as previously described. Briefly, in a total volume of 1 ml, 25 μg of CHO-hCB2, 50 μg of CHO-hCB1-Rx or 50 μg of CHO-hMOR membranes homogenates were added to each reaction mixture containing 0.1 nM [^35S]GTPγS, 20 mM HEPES, 10 mM MgCl2, 100 mM NaCl, 10 μM GDP, 0.1% bovine serum albumin and the indicated concentrations of ligand to be examined. After mixing, reaction mixtures were incubated at 30°C for 30 min. […] Nonspecific binding was defined by the amount of radioactivity remaining in the presence of 10 μM non-radiolabeled GTPγS. […] Four ml of scintiverse scintillation fluid (Fisher Scientific, Waltham, MA) was added to the filters and the amount of radioactivity was quantified 24 hr later utilizing liquid scintillation spectrophotometry.
Data presented are expressed as mean ± standard error of the mean (S.E.M.) for a minimum of three experiments, each performed in triplicate. […] To compare three or more groups, statistical significance of the data was determined by a one-way ANOVA, followed by post hoc comparisons using a Tukey's or Dunnett's test. […]

hCB1 receptors [5] = molecular target: T2, hCB1 receptors; assay: Antagonism of CP-55,940 inhibition of AC activity in intact CHO-hCB1 cells; type: cell-based; conditions: for Type of antagonism of CP-55,940 / IMAX of CP-55,940, intracellular [3H]cAMP: CHO-hCB1 cells; for Kb: read-out: Kb (antagonist dissociation constant); for IMAX of CP-55,940, intracellular [3H]cAMP: CP-55,940 alone or after pre-incubation with AM-281 1 μM, Z-Tam 30 μM, Z-4OHT 10 μM, Z-End 30 μM
Experimental: (§4) After overnight seeding into 24-well plates and pre-incubation of cells with [^3H]adenine for 3–5 hr at 37°C as described above, media was removed and the indicated concentration of the SERM to be tested was added to all wells of the 24-well plate. […] Reactions were terminated and [^3H]cAMP isolated as described above.
as §3

hCB2 receptors [6] = molecular target: T1, hCB2 receptors; assay: Antagonism of CP-55,940 inhibition of AC activity in intact CHO-hCB2 cells; type: cell-based
Experimental: as §4, §3

[7] = molecular target: T3, human mu-opioid receptors (hMOR) (Homo sapiens, UniProt P35372); assay: [35S]GTPγS binding (G-protein activity), CHO-hMOR membranes; type: biochemical; conditions: 10 μM
T3 construct: expressed in transfected cells
Experimental: as §1, with “Membrane homogenates were divided into aliquots and stored at −80°C for future use.” left out
The GTPγS binding assay to measure G-protein activation was performed as previously described. […] Nonspecific binding was defined by the amount of radioactivity remaining in the presence of 10 μM non-radiolabeled GTPγS. […] Four ml of scintiverse scintillation fluid (Fisher Scientific, Waltham, MA) was added to the filters and the amount of radioactivity was quantified 24 hr later utilizing liquid scintillation spectrophotometry.
Data presented are expressed as mean ± standard error of the mean (S.E.M.) for a minimum of three experiments, each performed in triplicate. […]

hCB1 receptors [8] = molecular target: T2, hCB1 receptors; assay: [35S]GTPγS binding (G-protein activity), CHO-hCB1 membranes; type: biochemical; conditions: read-out: IMAX, inhibition of basal [35S]GTPγS binding
Experimental: as §1
The GTPγS binding assay to measure G-protein activation was performed as previously described. Briefly, in a total volume of 1 ml, 25 μg of CHO-hCB2, 50 μg of CHO-hCB1-Rx or 50 μg of CHO-hMOR membranes homogenates were added to each reaction mixture containing 0.1 nM [^35S]GTPγS, 20 mM HEPES, 10 mM MgCl2, 100 mM NaCl, 10 μM GDP, 0.1% bovine serum albumin and the indicated concentrations of ligand to be examined. After mixing, reaction mixtures were incubated at 30°C for 30 min. […] Nonspecific binding was defined by the amount of radioactivity remaining in the presence of 10 μM non-radiolabeled GTPγS. Reactions were terminated by rapid vacuum filtration through glass fiber filters followed by four washes with ice cold 50 mM HEPES (pH 7.4) containing 0.1% bovine serum albumin. Four ml of scintiverse scintillation fluid (Fisher Scientific, Waltham, MA) was added to the filters and the amount of radioactivity was quantified 24 hr later utilizing liquid scintillation spectrophotometry.
as §3, with “All dissociation constants and measurements of potency were converted to pKi, pKB, pEC50, or pIC50 values by taking the negative log of each value so that parametric tests could be used for statistical comparisons.” left out, “To compare two groups, the non-paired Student's t-test was used.” left out

T2 sequence (P21554 whole entry): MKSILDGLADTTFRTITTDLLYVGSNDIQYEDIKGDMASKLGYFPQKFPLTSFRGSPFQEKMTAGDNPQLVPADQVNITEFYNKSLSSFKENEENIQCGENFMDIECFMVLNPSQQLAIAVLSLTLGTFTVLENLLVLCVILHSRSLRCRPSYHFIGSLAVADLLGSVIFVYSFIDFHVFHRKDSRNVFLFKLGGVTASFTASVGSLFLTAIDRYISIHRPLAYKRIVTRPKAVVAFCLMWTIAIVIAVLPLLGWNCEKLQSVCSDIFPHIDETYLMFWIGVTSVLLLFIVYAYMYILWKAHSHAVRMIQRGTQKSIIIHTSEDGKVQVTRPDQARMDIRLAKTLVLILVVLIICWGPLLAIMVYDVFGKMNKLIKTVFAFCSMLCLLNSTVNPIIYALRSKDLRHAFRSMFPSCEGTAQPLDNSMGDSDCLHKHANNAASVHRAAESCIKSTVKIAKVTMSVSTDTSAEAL
T1 sequence (P34972 whole entry): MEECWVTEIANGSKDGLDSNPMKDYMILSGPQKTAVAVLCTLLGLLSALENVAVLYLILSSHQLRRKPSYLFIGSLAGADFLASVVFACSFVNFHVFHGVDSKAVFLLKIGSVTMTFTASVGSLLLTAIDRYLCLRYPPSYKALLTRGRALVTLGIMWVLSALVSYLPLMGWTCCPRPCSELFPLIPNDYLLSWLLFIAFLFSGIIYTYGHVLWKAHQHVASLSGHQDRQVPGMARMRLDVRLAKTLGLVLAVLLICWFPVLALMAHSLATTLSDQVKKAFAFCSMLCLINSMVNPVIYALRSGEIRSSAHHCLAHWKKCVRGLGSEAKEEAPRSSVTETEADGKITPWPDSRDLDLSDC
T3 sequence (P35372 whole entry): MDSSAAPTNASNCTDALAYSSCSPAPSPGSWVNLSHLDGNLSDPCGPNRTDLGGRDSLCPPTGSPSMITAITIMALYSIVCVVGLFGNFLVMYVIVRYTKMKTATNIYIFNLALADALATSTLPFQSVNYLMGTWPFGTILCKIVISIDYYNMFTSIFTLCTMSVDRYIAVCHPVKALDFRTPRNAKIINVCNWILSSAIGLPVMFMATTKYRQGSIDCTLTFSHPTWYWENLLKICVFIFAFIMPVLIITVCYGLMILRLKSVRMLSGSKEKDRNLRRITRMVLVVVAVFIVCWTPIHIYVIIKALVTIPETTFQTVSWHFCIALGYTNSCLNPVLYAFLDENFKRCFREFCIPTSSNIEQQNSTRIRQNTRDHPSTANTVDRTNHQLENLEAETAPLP

| SMILES | Ki (hCB2 receptors [1]) | Ki (hCB1 receptors [2]) | Selectivity (CB1/CB2) (hCB1 receptors [2]) | EMAX, intracellular [3H]cAMP (hCB2 receptors [3]) | EC50 (hCB2 receptors [3]) | Type of antagonism of CP-55,940 (hCB1 receptors [5]) | Kb (hCB1 receptors [5]) | Type of antagonism of CP-55,940 (hCB2 receptors [6]) | Kb (hCB2 receptors [6]; against CP-55,940, AM-630 1 μM, Z-Tam 10 μM, Z-4OHT 10 μM, read-out: Kb (antagonist dissociation constant)) | Shift-to-the-right in potency (IC50) of CP-55,940 (hCB2 receptors [6]; Z-End 30 μM) | Functional activity at ERs (ERs) | IMAX, decrease in basal G-protein activity ([35S]GTPγS binding) (hCB2 receptors [4]) | IMAX of CP-55,940, intracellular [3H]cAMP (hCB1 receptors [5]) | IMAX of CP-55,940, intracellular [3H]cAMP (hCB1 receptors [5]; listed as +Z-Tam) | Decrease in [35S]GTPγS binding [7] | IMAX of CP-55,940, intracellular [3H]cAMP (hCB2 receptors [6]; CP-55,940 alone or after pre-incubation with AM-630 1 μM, Z-Tam 10 μM, Z-4OHT 10 μM, Z-End 30 μM) | inhibition at 10 µM (hCB1 receptors [8]) |
| --- | --- | --- | --- | --- | --- | --- | --- | --- | --- | --- | --- | --- | --- | --- | --- | --- | --- |
| CC/C(=C(\c1ccccc1)c1ccc(OCCN(C)C)cc1)c1ccccc1 [E-Tam, tamoxifen] | – | – | – | 464 ± 48^a^, ^†† % | – | – | – | – | – | – | ER agonist | 49.7 ± 1.5% | – | – | – | – | – |
| CC/C(=C(\c1ccc(O)cc1)c1ccc(OCCN(C)C)cc1)c1ccccc1 [Z-4OHT, 4-hydroxytamoxifen] | 495 nM | 681 nM | 1.38 | 323 ± 37^a^,^b % | 4900 nM | surmountable antagonism | 4680 nM | surmountable antagonism | 856 nM and 851 nM | – | – | – | – | – | – | – | – |
| CC/C(=C(\c1ccccc1)c1ccc(OCCN(C)C)cc1)c1ccccc1 [Z-Tam, tamoxifen] | – | – | – | 374 ± 24^a^,^b^, ^††† % | – | insurmountable | – | surmountable antagonism | – | – | ER antagonist | 65.1± 3.0% | 23.0% | 23.0 ± 0.5^b % | 11.3% | 32.3 ± 0.7^a % | 50.8 ± 2.7% |

Further lines, with some results ahead:

| Ki (hCB2 receptors [1]) | Ki (hCB1 receptors [2]) | Selectivity (CB1/CB2) (hCB1 receptors [2]) | EMAX, intracellular [3H]cAMP (hCB2 receptors [3]) | EC50 (hCB2 receptors [3]) | Type of antagonism of CP-55,940 (hCB1 receptors [5]) | Kb (hCB1 receptors [5]) | Type of antagonism of CP-55,940 (hCB2 receptors [6]) | Kb (hCB2 receptors [6]; against CP-55,940, AM-630 1 μM, Z-Tam 10 μM, Z-4OHT 10 μM, read-out: Kb (antagonist dissociation constant)) | Shift-to-the-right in potency (IC50) of CP-55,940 (hCB2 receptors [6]; Z-End 30 μM) | SMILES | Functional activity at ERs (ERs) | IMAX, decrease in basal G-protein activity ([35S]GTPγS binding) (hCB2 receptors [4]) | IMAX of CP-55,940, intracellular [3H]cAMP (hCB1 receptors [5]) | IMAX of CP-55,940, intracellular [3H]cAMP (hCB1 receptors [5]; listed as +Z-Tam) | Decrease in [35S]GTPγS binding [7] | IMAX of CP-55,940, intracellular [3H]cAMP (hCB2 receptors [6]; CP-55,940 alone or after pre-incubation with AM-630 1 μM, Z-Tam 10 μM, Z-4OHT 10 μM, Z-End 30 μM) | inhibition at 10 µM (hCB1 receptors [8]) |
| --- | --- | --- | --- | --- | --- | --- | --- | --- | --- | --- | --- | --- | --- | --- | --- | --- | --- |
| 2350 nM | 1390 nM | 0.59 | 239 ± 22^b % | 10700 nM | – | – | – | – | – | CC/C(=C(/c1ccc(O)cc1)c1ccc(OCCNC)cc1)c1ccccc1 [E-End, 4-hydroxy-N-desmethyl tamoxifen] | – | – | – | – | – | – | – |
| 2390 nM | 1160 nM | 0.49^†† | 259 ± 18^b % | 11500 nM | surmountable antagonism | 2570 nM | insurmountable | – | > 8 fold | CC/C(=C(\c1ccc(O)cc1)c1ccc(OCCNC)cc1)c1ccccc1 [Z-End, 4-hydroxy-N-desmethyl tamoxifen] | – | – | – | – | – | – | – |
